Biological target: T1, UGT1A1 (Homo sapiens, UniProt P22309)
T1 sequence (P22309 26-533): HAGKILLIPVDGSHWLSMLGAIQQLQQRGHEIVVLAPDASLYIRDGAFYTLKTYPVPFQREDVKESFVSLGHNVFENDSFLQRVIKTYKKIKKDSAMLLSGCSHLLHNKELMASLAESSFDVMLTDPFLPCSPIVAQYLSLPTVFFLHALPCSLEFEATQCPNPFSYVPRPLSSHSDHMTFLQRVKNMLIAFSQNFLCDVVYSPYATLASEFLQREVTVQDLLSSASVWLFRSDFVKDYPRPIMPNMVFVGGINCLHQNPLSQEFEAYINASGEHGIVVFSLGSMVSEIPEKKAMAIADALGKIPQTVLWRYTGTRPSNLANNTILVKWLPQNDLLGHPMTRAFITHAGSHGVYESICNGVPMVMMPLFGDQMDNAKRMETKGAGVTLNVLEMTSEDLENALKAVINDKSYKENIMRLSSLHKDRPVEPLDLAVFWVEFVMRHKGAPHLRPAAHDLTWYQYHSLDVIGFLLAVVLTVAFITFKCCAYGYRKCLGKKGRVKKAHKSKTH
Assay: Ticagrelor glucuronidation by recombinant human UGT1A1
Assay type: in vitro ADME
Parameters: purchased BD Gentest; host or cells: baculovirus-infected insect cells
Settings: recombinant human UGT1A1, pH 7.4
Procedure: Ticagrelor glucuronidation was investigated in an in vitro incubation system by using HLM, HIM, and recombinant human UGTs. The incubation system consisted of enzyme sources (HLM, HIM, or human recombinant UGTs), various concentrations of ticagrelor (dissolved in 50% methanol, 1% v/v, 1, 2, 5, 10, 20, 50, 100, 200, 500 μM of final concentration), alamethicin (50 μg/mg protein), 5 mM MgCl2, 100 mM tris-HCL buffer (pH 7.4), and 5 mM UDPGA in a total volume of 100 μl. Alamethicin is a pore-forming polypeptide used to activate UGTs in HLM and HIM ([Fisher et al., 2000]). Preliminary studies were conducted to determine the optimal protein concentrations and incubation times. Linear conditions of ticagrelor-O-Glu formation from ticagrelor, i.e., HLM, 0.2 mg of protein/ml and 60 min, HIM, 0.2 mg of protein/ml and 60 min, and recombinant human UGTs, 0.2 mg of protein/ml and 60 min were selected. The incubation mixture without UDPGA was placed on ice for 15 min to activate UGT by alamethicin. […]
Kinetic analyses were performed using the mean values of triplicate determinations with either pooled HLM, HIM, or recombinant human UGTs. All data were analyzed by nonlinear regression analysis using the GraphPad Prism 6 (GraphPad Software Inc., CA, United States). […] Intrinsic clearance (CLint) was calculated by dividing Vmax by Km.

## CCCSc1nc(N[C@@H]2C[C@H]2c2ccc(F)c(F)c2)c2nnn([C@@H]3C[C@H](OCCO)[C@@H](O)[C@H]3O)c2n1 [Ticagrelor]
  microsomal CLint: 0.03 µL/min/mg
